Laboratory results reported in patent US20240408222A1, “COMPOUNDS, PHARMACEUTICAL COMPOSITIONS, AND METHODS FOR THE TREATMENT, PREVENTION, OR MANAGEMENT OF HYPERPRO[…]” (VINCERX PHARMA GMBH, priority 2021, published 2024).
Structures can show the parent of a compound that is named as a salt.

Columns and labels:
NCI H292 [1] = assay: Cytotoxicity in vitro (MTT) in presence/absence of elastase; type: cell-based, human; details: 72 h
Protocol: (§1) Cultivation of cells was performed according to standard procedures with the media recommended by the provider. The cells, in a total volume of 100 μL, were seeded in a 96-well plate with a white bottom (#3610). After a 24 h incubation period at 37° C. and […], the medium was exchanged by adding 90 μL fresh medium. The treatment started by adding the test compound in 10 μL of culture medium to the cells in triplicates. Concentrations ranging from 10^−5 M to 10^−13 M were chosen. Two identically treated sets of samples were prepared. One set was treated with the test compound alone, whereas to the second set the compound and 10 nM elastase was added followed by a 72 h incubation period at 37° C. and […]. The proliferation was detected using the MTT assay (ATCC). At the end of the incubation period the MTT reagent was added to all samples for 4 h. Lysis of the cells followed by addition of the detergent was done overnight. The formed dye was detected at 570 nm. The proliferation of untreated but otherwise identically handled cells was define as the 100% value.

HT29 [2] = assay: as above; type: cell-based, human; details: 72 h
Protocol: as §1

786-O [3] = assay: as above; type: cell-based, human; details: 72 h
Protocol: as §1

SUM149 [4] = assay: as above; type: cell-based; details: 72 h
Protocol: as §1

NCI H292 [5] = assay: Cytotoxicity assay (Version 2, automated, AC50) with/without neutrophil elastase; type: cell-based, human; details: Version 2, activity concentration at −50%
Protocol: as §1
(§2) The cytotoxicity assay (Version 2) was performed as described above. Some changes were applied as the assays were performed in an automated fashion and the IC50 values determination was changed. Here the change in metabolic activity of the cells, in percent, was calculated by normalization of the measured values to the absorbance values of medium containing wells without cells (═−100%) and the absorbance of the DMSO-treated cells (═0%). AC50 values (activity concentration at −50%) were determined by means of a 4 parameter Hill-fit using GeneData Screener software.

HT29 [6] = assay: as above; type: cell-based, human; details: Version 2, activity concentration at −50%
Protocol: as §1, §2

786-O [7] = assay: as above; type: cell-based, human; details: Version 2, activity concentration at −50%
Protocol: as §1, §2

SUM149 [8] = assay: as above; type: cell-based; details: Version 2, activity concentration at −50%
Protocol: as §1, §2

[9] = NCI H292, with (+) 10 nM neutrophil elastase
[10] = NCI H292, without (−) neutrophil elastase
[11] = HT29, with (+) 10 nM neutrophil elastase
[12] = HT29, without (−) neutrophil elastase
[13] = with (+) 10 nM neutrophil elastase
[14] = without (−) neutrophil elastase
[15] = SUM149, with (+) 10 nM neutrophil elastase
[16] = SUM149, without (−) neutrophil elastase
[17] = NCI H292, with (+) neutrophil elastase
[18] = HT29, with (+) neutrophil elastase
[19] = SUM149, with (+) neutrophil elastase

Compound | IC50 (NCI H292 [1]; [9]) [µM] | IC50 (NCI H292 [1]; [10]) [µM] | IC50 (HT29 [2]; [11]) [µM] | IC50 (HT29 [2]; [12]) [µM] | IC50 (786-O [3]; [13]) [µM] | IC50 (786-O [3]; [14]) [µM] | IC50 (SUM149 [4]; [15]) [µM] | IC50 (SUM149 [4]; [16]) [µM] | AC50 (NCI H292 [5]; [17]) [µM] | AC50 (NCI H292 [5]; [10]) [µM] | AC50 (HT29 [6]; [18]) [µM] | AC50 (HT29 [6]; [12]) [µM] | AC50 (786-O [7]; with (+) neutrophil elastase) [µM] | AC50 (786-O [7]; [14]) [µM] | AC50 (SUM149 [8]; [19]) [µM] | AC50 (SUM149 [8]; [16]) [µM]
CCCNC(=O)Nc1cccc(S(=O)(=O)Nc2cccc([C@@H](CC(=O)O)NC(=O)Nc3ccc(NC(=O)NCCOCCOCCOCCC(=O)N[C@@H](CC(=O)O)C(=O)N4CCC[C@H]4C(=O)N[C@H](C(=O)N=S(C)(=O)Cc4cccc(Nc5ncnc(-c6ccc(F)cc6OC)n5)c4)C(C)C)cc3)c2)c1 (relative stereo) [Compound 1, disodium 1-[(2S)-2-(carboxylatomethyl)-17-{4-[({(1R)-2-carboxylato-1-[3-({3-[(propylcarbamoyl)amino]benzene-1-sulfonyl}amino)phenyl]ethyl}carbamoyl)amino]anilino}-4,17-dioxo-7,10,13-trioxa-3,16-diazaheptadecanan-1-oyl]-L-prolyl-N—[(R*)-[(3-{[4-(4-fluoro-2-methoxyphenyl)-1,3,5-triazin-2-yl]amino}phenyl)methyl](methyl)oxo-lambda^6-sulfanylidene]-L-valinamide] | 0.011 to 0.1 | > 0.1 | 0.011 to 0.1 | > 0.1 | 0.011 to 0.1 | 0.011 to 0.1 | 0.011 to 0.1 | > 0.1 | 0.011 to 0.1 | > 1 | > 1 | > 1 | > 1 | > 1 | 0.1 to 1 | > 1
CCCNC(=O)Nc1cccc(S(=O)(=O)Nc2cccc([C@@H](CC(=O)O)NC(=O)Nc3ccc(NC(=O)NCCOCCOCCOCCC(=O)N[C@@H](CC(=O)O)C(=O)N4CCC[C@H]4C(=O)N[C@H](C(=O)N=S(C)(=O)Cc4ccnc(Nc5cc(-c6ccc(F)cc6OC)c(F)cn5)c4)C(C)C)cc3)c2)c1 (relative stereo) [Compound 2, disodium 1-[(2S)-2-(carboxylatomethyl)-17-{4-[({(1R)-2-carboxylato-1-[3-({3-[(propylcarbamoyl)amino]benzene-1-sulfonyl}amino)phenyl]ethyl}carbamoyl)amino]anilino}-4,17-dioxo-7,10,13-trioxa-3,16-diazaheptadecanan-1-oyl]-L-prolyl-N—[(S*)-[(2-{[5-fluoro-4-(4-fluoro-2-methoxyphenyl)pyridin-2-yl]amino}pyridin-4-yl)methyl](methyl)oxo-lambda^6-sulfanylidene]-L-valinamide] | 0.011 to 0.1 | > 0.1 | 0.0011 to 0.01 | > 0.1 | 0.011 to 0.1 | > 0.1 | 0.011 to 0.1 | > 0.1 | 0.1 to 1 | > 1 | 0.1 to 1 | 0.1 to 1 | 0.1 to 1 | 0.1 to 1 | 0.1 to 1 | 0.1 to 1
CCCNC(=O)Nc1cccc(S(=O)(=O)Nc2cccc([C@@H](CC(=O)O)NC(=O)Nc3ccc(NC(=O)N(C)CCN(C)CCN(C)CC(=O)N[C@@H](CC(N)=O)C(=O)N4CCC[C@H]4C(=O)N[C@H](C(=O)N=S(C)(=O)Cc4cc5cc(c4)OC(C)CCOc4cc(F)ccc4-c4nc(ncc4F)N5)C(C)C)cc3)c2)c1 (relative stereo) [Compound 6] | ≤ 0.001 | > 0.1 | ≤ 0.001 | > 0.1 |  |  | ≤ 0.001 | 0.011 to 0.1 | ≤ 0.01 | 0.1 to 1 | ≤ 0.01 | ≤ 0.01 | ≤ 0.01 | ≤ 0.01 | ≤ 0.01 | ≤ 0.01
CCCNC(=O)Nc1cccc(S(=O)(=O)Nc2cccc([C@@H](CC(=O)O)NC(=O)Nc3ccc(NC(=O)NCCN(C)CCN(C)CCN(C)CC(=O)N[C@@H](CC(N)=O)C(=O)N4CCC[C@H]4C(=O)N[C@H](C(=O)N=[S@@](C)(=O)Cc4cc5cc(c4)OCCCCCNc4cc(ccc4F)-c4nc(ncc4F)N5)C(C)C)cc3)c2)c1 (relative stereo) [Compound 15] | ≤ 0.001 | 0.011 to 0.1 | ≤ 0.001 | > 0.1 | ≤ 0.001 | > 0.1 | ≤ 0.001 | 0.011 to 0.1 | 0.011 to 0.1 | 0.1 to 1 | 0.1 to 1 | 0.1 to 1 | 0.1 to 1 | 0.1 to 1 | 0.1 to 1 | 0.1 to 1
CCCNC(=O)Nc1cccc(S(=O)(=O)Nc2cccc([C@@H](CC(=O)O)NC(=O)Nc3ccc(NC(=O)NCCOCCOCCOCCC(=O)N[C@@H](CC(=O)OCCC[N+](C)(C)C)C(=O)N4CCC[C@H]4C(=O)N[C@H](C(=O)N=S(C)(=O)Cc4cc5cc(c4)OCCCCOc4cc(F)ccc4-c4nc(ncc4F)N5)C(C)C)cc3)c2)c1 (single isomer, unassigned) [Compound 20, trifluoroacetate] |  |  |  |  |  |  |  |  | 0.011 to 0.1 | > 1 | 0.011 to 0.1 | > 1 | 0.011 to 0.1 | > 1 | 0.011 to 0.1 | 0.1 to 1
CCCNC(=O)Nc1cccc(S(=O)(=O)Nc2cccc([C@@H](CC(=O)O)NC(=O)Nc3ccc(NC(=O)NCCOCCOCCOCCC(=O)N[C@@H](CC(=O)OCCCCN(C)C)C(=O)N4CCC[C@H]4C(=O)N[C@H](C(=O)N=S(C)(=O)Cc4cc5cc(c4)OCCCCOc4cc(F)ccc4-c4nc(ncc4F)N5)C(C)C)cc3)c2)c1 (single isomer, unassigned) [Compound 21] |  |  |  |  |  |  |  |  | 0.011 to 0.1 | 0.1 to 1 | 0.011 to 0.1 | > 1 | 0.011 to 0.1 | > 1 | 0.011 to 0.1 | 0.1 to 1
CCCNC(=O)Nc1cccc(S(=O)(=O)Nc2cccc([C@@H](CC(=O)O)NC(=O)Nc3ccc(NC(=O)NCCN(C)CCN(C)CCN(C)CC(=O)N[C@@H](CC(N)=O)C(=O)N4CCC[C@H]4C(=O)N[C@H](C(=O)N=[S@@](C)(=O)Cc4cc5cc(c4)O[C@@H](C)CCOc4cc(F)ccc4-c4nc(ncc4F)N5)C(C)C)cc3)c2)c1 (single isomer, unassigned) [Compound 24] |  |  |  |  |  |  |  |  | ≤ 0.01 | 0.1 to 1 | ≤ 0.01 | 0.1 to 1 | ≤ 0.01 | 0.1 to 1 | ≤ 0.01 | 0.1 to 1
CCCNC(=O)Nc1cccc(S(=O)(=O)Nc2cccc([C@@H](CC(=O)O)NC(=O)Nc3ccc(NC(=O)NCCOCCOCCOCCC(=O)NCCNC(=O)CC[C@H](NC(=O)CCCC(=O)NCCN(C)CCN(C)CCN(C)CC(=O)N[C@@H](CC(N)=O)C(=O)N4CCC[C@H]4C(=O)N[C@H](C(=O)N=[S@@](C)(=O)Cc4cc5cc(c4)OCCCCOc4cc(F)ccc4-c4nc(ncc4F)N5)C(C)C)C(=O)NCCNC(=O)CCOCCOCCOCCNC(=O)Nc4ccc(NC(=O)N[C@H](CC(=O)O)c5cccc(NS(=O)(=O)c6cccc(NC(=O)NCCC)c6)c5)cc4)cc3)c2)c1 [Compound 25] |  |  |  |  |  |  |  |  | 0.011 to 0.1 |  | 0.011 to 0.1 | > 1 | 0.011 to 0.1 | > 1 | 0.011 to 0.1 | 0.1 to 1
disodium 1-{(2S)-2-(carboxylatomethyl)-17-[4-({[(1R)-2-carboxylato-1-{3-[({3-[(propylcarbamoyl)amino]phenyl}sulfonyl)amino]phenyl}ethyl]carbamoyl}amino)anilino]-4,17-dioxo-7,10,13-trioxa-3,16-diazaheptadecan-1-oyl}-L-prolyl-N—[(R*)—{[15,19-difluoro-3,4-dihydro-2H,11H-10,6-(azeno)-12,16-(metheno)-1,5,11,13-benzodioxadiazacyclooctadecin-8-yl]methyl}(methyl)oxido-lambda^6-sulfanylidene]-L-valinamide [Compound 42] |  |  |  |  |  |  |  |  | ≤ 0.01 | 0.1 to 1 | ≤ 0.01 | > 1 | ≤ 0.01 | 0.1 to 1 | ≤ 0.01 | 0.1 to 1
